Reference: ChEMBL document CHEMBL1201862, “PubChem BioAssay data set” (2004)
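Five concentrations, 48 hours, 96-well plates. GI50 marks 50% less growth.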 Calls of active or inactive are those of the source. No stated cut-off is given here; in the data, active = GI50 up to about 1.1 µM and inactive = higher.

Assays:
Experiment in all cases: NCI anticancer screen, dose series, 48 h
SNB-75 = tested on: SNB-75
UACC-62 = tested on: UACC-62
ACHN = tested on: ACHN
MDA-MB-435 = tested on: MDA-MB-435
RXF 393 = tested on: RXF 393
PC-3 = tested on: PC-3
HT-29 = tested on: HT-29
CAKI-1 = tested on: CAKI-1
SK-OV-3 = tested on: SK-OV-3
SW-620 = tested on: SW-620
A549 = tested on: A549
HOP-62 = tested on: HOP-62
K562 = tested on: K562
COLO 205 = tested on: COLO 205
M14 = tested on: M14
SF-268 = tested on: SF-268
OVCAR-5 = tested on: OVCAR-5
NCI-H522 = tested on: NCI-H522
LOX IMVI = tested on: LOX IMVI
A498 = tested on: A498

Measured: GI50

COc1ccc(C(=O)/C=C/c2ccc(OCCSCCCCCCCCCCSCCOc3ccc(/C=C/C(=O)c4ccc(OC)cc4)cc3)cc2)cc1
inactive: SNB-75 > 100 µM | UACC-62 > 100 µM | ACHN > 100 µM | MDA-MB-435 > 100 µM | RXF 393 > 100 µM | PC-3 > 100 µM | HT-29 > 100 µM | CAKI-1 > 100 µM | SK-OV-3 > 100 µM | SW-620 > 100 µM | A549 > 100 µM | HOP-62 > 100 µM | K562 > 100 µM | COLO 205 > 100 µM | M14 > 100 µM | SF-268 > 100 µM

COc1ccc(/N=C2\C(=N/c3ccc(OC)cc3)N(S(=O)(=O)c3ccccc3)C(=S)N2c2ccc(OC)cc2)cc1
inactive: SNB-75 4.88 µM | UACC-62 > 100 µM | ACHN > 100 µM | MDA-MB-435 > 100 µM | OVCAR-5 > 100 µM | RXF 393 46.2 µM | PC-3 > 100 µM | CAKI-1 > 100 µM | SK-OV-3 > 100 µM | NCI-H522 > 100 µM | SW-620 > 100 µM | A549 > 100 µM | HOP-62 > 100 µM | K562 > 100 µM | COLO 205 > 100 µM | M14 25.1 µM | SF-268 > 100 µM

C=C(C)[C@H]1C2=CC(C(=O)OC)=C(C[C@H](C(=C)C)[C@@H](O)[C@@H](O)C3=C[C@H]1OC3=O)O2
inactive: SNB-75 37.7 µM | UACC-62 > 100 µM | ACHN > 100 µM | LOX IMVI > 100 µM | MDA-MB-435 > 100 µM | OVCAR-5 > 100 µM | RXF 393 > 100 µM | HT-29 > 100 µM | CAKI-1 > 100 µM | SK-OV-3 > 100 µM | NCI-H522 > 100 µM | SW-620 > 100 µM | A549 > 100 µM | HOP-62 > 100 µM | K562 > 100 µM | COLO 205 > 100 µM | A498 > 100 µM | M14 > 100 µM | SF-268 > 100 µM

COCCCN1C(=O)C2c3[nH]c4ccccc4c3C3CCC(C(C)(C)C)CC3C2C1=O (stereo unspecified)
inactive: SNB-75 47.6 µM | UACC-62 > 10 µM | ACHN 27.4 µM | MDA-MB-435 29.7 µM | RXF 393 21.3 µM | PC-3 19.1 µM | HT-29 15.3 µM | CAKI-1 29.5 µM | SK-OV-3 > 100 µM | NCI-H522 21.7 µM | SW-620 30.6 µM | A549 32.6 µM | HOP-62 22.4 µM | K562 > 10 µM | COLO 205 > 10 µM | M14 18.4 µM | SF-268 43.7 µM

CN1CCN(Cc2ccccc2)CC1CC#N (stereo unspecified)
inactive: SNB-75 > 100 µM | UACC-62 > 100 µM | ACHN > 100 µM | LOX IMVI > 100 µM | MDA-MB-435 > 100 µM | OVCAR-5 > 100 µM | RXF 393 > 100 µM | HT-29 > 100 µM | CAKI-1 > 100 µM | SK-OV-3 > 100 µM | SW-620 > 100 µM | A549 > 100 µM | HOP-62 > 100 µM | K562 > 100 µM | COLO 205 > 100 µM | A498 > 100 µM | SF-268 > 100 µM

CC(C)N1[C@@H]2CCCC[C@H]2N(C(C)C)[PH]1=O
inactive: SNB-75 > 100 µM | UACC-62 > 100 µM | ACHN > 100 µM | MDA-MB-435 > 100 µM | OVCAR-5 > 100 µM | RXF 393 > 100 µM | HT-29 > 100 µM | CAKI-1 > 100 µM | SK-OV-3 > 100 µM | NCI-H522 > 100 µM | SW-620 > 100 µM | A549 > 100 µM | HOP-62 > 100 µM | K562 > 100 µM | COLO 205 > 100 µM | A498 > 100 µM | M14 > 100 µM | SF-268 > 100 µM

O=C1c2cn[nH]c2N=C(Nc2ccccc2)C1/N=C/c1ccc([N+](=O)[O-])cc1 (stereo unspecified)
inactive: SNB-75 > 10 µM | ACHN > 10 µM | LOX IMVI > 10 µM | MDA-MB-435 > 10 µM | OVCAR-5 > 10 µM | PC-3 > 10 µM | HT-29 > 10 µM | NCI-H522 > 10 µM | A549 > 10 µM | K562 > 10 µM | M14 > 10 µM | SF-268 > 10 µM

CC1CCN(C(C)C)P(=S)(Cc2ccccc2)O1 (stereo unspecified)
inactive: UACC-62 16.7 µM | ACHN > 100 µM | LOX IMVI > 100 µM | MDA-MB-435 > 100 µM | OVCAR-5 > 100 µM | PC-3 55 µM | HT-29 > 100 µM | CAKI-1 > 100 µM | SK-OV-3 > 100 µM | SW-620 7.93 µM | A549 > 100 µM | HOP-62 > 100 µM | K562 70.1 µM | COLO 205 > 100 µM | M14 > 100 µM | SF-268 > 100 µM

CC(=O)OCC1OC(n2c(=O)n(-c3ccccc3)c(=O)c3ccccc32)C(OC(C)=O)C(OC(C)=O)C1OC(C)=O (stereo unspecified)
inactive: SNB-75 > 100 µM | UACC-62 > 100 µM | ACHN > 100 µM | LOX IMVI > 100 µM | OVCAR-5 > 100 µM | RXF 393 > 100 µM | HT-29 > 100 µM | CAKI-1 > 100 µM | SK-OV-3 > 100 µM | NCI-H522 > 100 µM | SW-620 > 100 µM | A549 > 100 µM | HOP-62 > 100 µM | K562 > 100 µM | COLO 205 > 100 µM | A498 > 100 µM | M14 > 100 µM | SF-268 > 100 µM

CCOC(=O)c1ccc(/N=C\c2ccc(N(CCC#N)CCC#N)cc2)cc1
inactive: SNB-75 47.4 µM | UACC-62 21.5 µM | ACHN 43.2 µM | LOX IMVI 44.2 µM | OVCAR-5 > 100 µM | RXF 393 > 100 µM | HT-29 > 100 µM | CAKI-1 > 100 µM | SK-OV-3 > 100 µM | NCI-H522 49.5 µM | SW-620 81.5 µM | A549 70 µM | HOP-62 40.5 µM | K562 28.2 µM | COLO 205 53.7 µM | A498 > 100 µM | M14 36.5 µM | SF-268 84.7 µM

O=c1c2ccccc2[nH]c2ccc3c(Cl)n[nH]c3c12
inactive: SNB-75 42.9 µM | UACC-62 35 µM | ACHN 27.8 µM | LOX IMVI 20.8 µM | OVCAR-5 41.1 µM | RXF 393 42.2 µM | HT-29 37.6 µM | CAKI-1 23.7 µM | SK-OV-3 > 100 µM | NCI-H522 35 µM | SW-620 36.5 µM | A549 15.9 µM | HOP-62 29.1 µM | K562 34.3 µM | COLO 205 36.4 µM | A498 30.9 µM | M14 60.1 µM | SF-268 50.5 µM
